Data on 3 molecules can be found in patent US11253524B2 (Gilead Sciences, Inc., priority 2018, dated 2022).

Some results are limits rather than exact numbers.

Data set [1] deals with T1, human hepatic microsomal UGT1A1 (Homo sapiens, UniProt P22309).
T1 sequence (P22309 26-533): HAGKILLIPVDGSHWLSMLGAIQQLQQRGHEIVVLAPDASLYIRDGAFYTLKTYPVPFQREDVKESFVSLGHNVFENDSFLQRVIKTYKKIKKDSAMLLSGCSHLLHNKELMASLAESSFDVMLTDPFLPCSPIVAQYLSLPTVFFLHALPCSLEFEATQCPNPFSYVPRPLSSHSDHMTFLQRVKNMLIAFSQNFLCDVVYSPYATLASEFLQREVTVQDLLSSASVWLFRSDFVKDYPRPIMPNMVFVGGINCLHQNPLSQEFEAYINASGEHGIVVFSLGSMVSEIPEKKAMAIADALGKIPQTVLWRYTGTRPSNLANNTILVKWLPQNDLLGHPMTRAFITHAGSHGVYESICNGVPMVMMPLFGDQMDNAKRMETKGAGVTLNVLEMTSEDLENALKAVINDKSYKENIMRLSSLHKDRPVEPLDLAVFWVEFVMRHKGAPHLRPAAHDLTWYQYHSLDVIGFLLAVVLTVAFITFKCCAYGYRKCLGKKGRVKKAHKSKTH
Nature of the data set: biochemical. As for the experimental part: The conditions for the assay were determined to be linear with respect to microsomal protein concentration and incubation time. […] Microsomal UGT1A1 activity was determined in duplicate. […] Diluted microsomal fraction was incubated on ice for 15 minutes with alamethicin, magnesium chloride and SACLAC. Substrate and inhibitor were then added and the mixture warmed to 37° C. for 0.5 minute. The reaction was initiated by the addition of UDP glucuronic acid in potassium phosphate buffer. The incubation continued at 37° C. with shaking and no light exposure for 2 minutes. Reactions were terminated by addition of one volume of 200 mM ascorbic acid in methanol, containing 200 nM 2-(N-(2-ethylphenyl)methylsulfonamido)-N-(2-(pyridin-2-ylthio)ethyl)acetamide as the internal standard.
A Shimadzu UFLC XR UPLC system was used for analysis. The column used was a Thermo-Hypersil Gold 1.9 μm C18 column (30×2.1 mm) held at 60° C. Mobile phases were; A: water containing 0.1% (v/v) formic acid, and B: acetonitrile containing 0.1% (v/v) formic acid, pumped at 0.7 mL/minute. Elution was achieved by a series of linear gradients over 2 minutes. The mass spectrometer was an Applied Biosciences SCIEX QTRAP 5500 triple quadrupole mass spectrometer with an electrospray interface operating in positive ion mode. Quantification was by metabolite/internal standard peak area ratio (PAR).
MS/MS transitions ([M+H]+) of m/z 761.2/475.1 and 937.2/475.1 for the monoglucuronide and diglucuronide, respectively. The PAR values for the two monoglucuronides were combined for quantification.
Reaction velocities were calculated from the rates of formation of the metabolites and were compared to those seen with the vehicle control (100% activity). IC50 values were calculated by non-linear regression using GraphPad Prism 7.03 and a sigmoidal three parameter inhibition model. […] During the testing period the inhibitory potency of atazanavir was determined four times, with each concentration tested in duplicate in each determination. The data from all runs were pooled and a global fit performed to determine the lower plateau value. […] For atazanavir, the IC50 values from the four duplicate runs were combined to generate a summary geometric mean and multiplicative standard deviation for this positive control inhibitor.

The next data set concerns the target T2, MRP2 (ABCC2) (Homo sapiens, UniProt Q92887).
T2 construct: host or cells: membrane vesicle preparations
Nature of the data set: in vitro. The following applies: human. It is filed as biochemical. How it is done:
Cells and experimental conditions for the transporter inhibition assays are summarized below in Table 7. […] M15, M20, and M23 were prepared according to the procedures described herein. All other materials were purchased by SOLVO Biotechnology and experiments were conducted according to SOLVO Standard Operating Procedures (SOPs) of its certified ISO 9001:2008 system. Lot and product information was recorded by SOLVO Biotechnology.
Test compounds and positive control was incubated with membrane vesicle preparations (total protein: 50 μg/well) and the model substrate in the absence or presence of ATP. Reaction mixtures were preincubated for 15 minutes at 37° C. Reactions were started by the addition of 25 μL of 12 mM MgATP or AMP assay buffer (for background controls) preincubated separately. Reactions were stopped after 5 min by the addition of 200 μL of ice-cold washing buffer and immediate filtration via glass fiber filters mounted to a 96-well plate (filter plate). The filters were washed, dried and the amount of substrate inside the filtered vesicles determined by liquid scintillation. A positive control inhibitor was tested in parallel. Control membranes lacking transporter expression were used as negative control. All assays were performed in duplicate.
Fractional transport activities were calculated from the following equation: Activity %=(A−B)/(C−D)×100 where A is translocated amount of substrate in the presence of TA and ATP, B is translocated amount of substrate in the presence of TA, C is translocated amount of substrate in the presence of solvent and ATP, and D is translocated amount of substrate in the presence of solvent. IC50 Determination in Transporter Assays
IC50 is defined as the test article concentration needed to inhibit the maximal transporter specific transport by 50%. IC50 values were calculated using non-linear fitting of % inhibition versus concentration to a sigmoidal curve with a variable Hill Coefficient using GraphPad Prism 5 (GraphPad Software Inc., San Diego, Calif.). If the % inhibition was less than 50% at the highest concentration tested, the IC50 was not determined. No inhibition observed (NIO) is reported for relative inhibition results <20% and no concentration dependent transport observed up to the highest concentration tested.

Substrate in data set [2]: C=CC1=C(C)/C(=C/c2[nH]c(Cc3[nH]c(/C=C4\NC(=O)C(C)=C4C=C)c(C)c3CCC(=O)O)c(CCC(=O)O)c2C)NC1=O
Nature of the data set: cells, lysate or membranes named. The following applies: other: under the assay conditions; pH 7.4.

T2 sequence (Q92887 whole entry): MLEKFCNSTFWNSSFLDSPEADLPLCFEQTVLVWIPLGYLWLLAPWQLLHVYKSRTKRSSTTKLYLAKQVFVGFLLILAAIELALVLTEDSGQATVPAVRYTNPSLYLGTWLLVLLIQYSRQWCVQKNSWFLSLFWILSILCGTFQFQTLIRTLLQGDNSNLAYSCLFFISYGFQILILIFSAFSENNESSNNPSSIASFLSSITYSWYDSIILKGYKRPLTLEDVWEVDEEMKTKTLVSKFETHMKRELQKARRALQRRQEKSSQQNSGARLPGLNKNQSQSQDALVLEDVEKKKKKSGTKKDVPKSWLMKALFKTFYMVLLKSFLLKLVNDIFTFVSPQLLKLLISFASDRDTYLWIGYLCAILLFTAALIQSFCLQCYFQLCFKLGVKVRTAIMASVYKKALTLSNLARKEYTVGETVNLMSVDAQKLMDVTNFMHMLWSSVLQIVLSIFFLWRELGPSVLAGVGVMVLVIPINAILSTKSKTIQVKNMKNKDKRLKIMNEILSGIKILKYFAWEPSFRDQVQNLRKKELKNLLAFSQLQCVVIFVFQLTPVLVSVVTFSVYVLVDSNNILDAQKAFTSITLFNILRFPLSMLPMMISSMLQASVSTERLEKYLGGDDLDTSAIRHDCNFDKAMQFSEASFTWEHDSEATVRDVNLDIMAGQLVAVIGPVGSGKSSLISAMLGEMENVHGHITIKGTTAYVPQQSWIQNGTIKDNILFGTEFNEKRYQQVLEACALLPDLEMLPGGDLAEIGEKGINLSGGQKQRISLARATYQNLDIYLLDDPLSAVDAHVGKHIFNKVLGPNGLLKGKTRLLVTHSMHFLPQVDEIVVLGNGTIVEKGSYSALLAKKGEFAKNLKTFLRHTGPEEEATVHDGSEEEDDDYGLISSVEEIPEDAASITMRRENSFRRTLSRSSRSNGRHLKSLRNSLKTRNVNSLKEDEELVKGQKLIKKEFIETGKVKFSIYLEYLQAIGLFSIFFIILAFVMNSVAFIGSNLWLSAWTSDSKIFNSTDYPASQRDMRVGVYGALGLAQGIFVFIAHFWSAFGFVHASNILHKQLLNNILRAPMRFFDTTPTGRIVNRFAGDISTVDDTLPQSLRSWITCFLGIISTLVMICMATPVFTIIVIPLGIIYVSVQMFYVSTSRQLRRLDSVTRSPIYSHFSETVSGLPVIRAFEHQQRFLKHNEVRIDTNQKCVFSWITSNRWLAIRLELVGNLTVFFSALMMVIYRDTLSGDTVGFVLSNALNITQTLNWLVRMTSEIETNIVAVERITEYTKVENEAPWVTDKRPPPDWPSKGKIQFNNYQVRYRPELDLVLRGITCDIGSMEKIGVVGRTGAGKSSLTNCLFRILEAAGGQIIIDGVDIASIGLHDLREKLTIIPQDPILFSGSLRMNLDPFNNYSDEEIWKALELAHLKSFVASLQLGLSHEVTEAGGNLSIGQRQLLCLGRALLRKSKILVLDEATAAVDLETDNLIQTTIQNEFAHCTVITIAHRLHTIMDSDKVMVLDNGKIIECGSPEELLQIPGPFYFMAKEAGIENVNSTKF

For orientation: IC50 means the concentration that gives 50% inhibition. A higher IC50 goes with weaker potency. Regarding `COC(=O)N[C@H](C(=O)N[C@@H](Cc1ccccc1)[C@@H](O)CN(Cc1ccc(-c2ccccn2)cc1)NC(=O)[C@@H](NC(=O)OC)C(C)(C)C)C(C)(C)C` [atazanavir, reference compound], the concentration for half-maximal inhibition (IC50) in data set [1] was 1200 nM. Moreover, the “Lower plateau value, activity remaining (global best fit)” value in data set [1] (pooled data of four runs, standard error 2.94%) came to 10.96%.
As usually defined, the inhibition is the relative decrease from the control value, in per cent. As to `CCc1oc2ccccc2c1C(=O)c1cc(Br)c(O)c(Br)c1` [benzbromarone, reference compound], on MRP2 (ABCC2), the inhibition at 5 min, 200 µM was not below 99%.

B1: human hepatic microsomal UGT1A1 (Homo sapiens) (protein)
chain: T1 sequence (P22309 26-533)
The term Km denotes the concentration of substrate that gives half-maximal velocity. On to B1, for which the Km in data set [2] stood at 0.98 µM.
